# Reference: patent US11707453B2, “Treatment of unipolar depressive disorder” (OXFORD UNIVERSITY INNOVATION LIMITED, priority 2017, dated 2023)
# Key:
# 5-HT2A receptor [1] = assay: DOI-evoked head-twitch (HTR) and ear scratch (ESR) behavioural responses; type: in vivo, mice; conditions: for DOI-evoked ESR / DOI-evoked HTR: vs DOI alone
# 5-HT2A receptor [2] = assay: DOI-evoked IEG (c-fos, Arc, egr2 mRNA) expression, in situ hybridization; type: in vivo, mice
# Protocol: In separate molecular studies, central 5-HT2A receptor function was assessed by measuring DOI-induced mRNA expression of the IEG c-fos, as well as complementary IEGs Arc and egr2 in cortical regions (Gonzalez-Maeso et al., 2007; Jennings et al., 2008). The challenge dose of DOI (2 mg kg^−1 i.p.) was selected on the basis of preliminary dose response studies and evidence that DOI-evoked IEG expression was blocked by a selective 5-HT2A receptor antagonist (Jennings et al., 2008).
# Mice were randomly allocated to one of the following treatments (6 mice per group); i) acute ebselen (10 mg kg^−1 i.p.) or vehicle, ii) repeated lithium (3 days; 10 mmol kg^−1 i.p. on day 1, 3 mmol kg^−1 i.p. twice daily on days 2-3) or vehicle. Drug doses and pre-treatment times were selected as noted above; ebselen (1 h), lithium (18 h). Groups of mice were acclimatised to a procedure room for 4 h prior to each experiment. […]
# c-Fos, Arc and egr2 mRNA was measured on tissue sections using in situ hybridization (Jennings et al., 2008). […]
# Optical density measurements were obtained from the autoradiograms using computer-based image analysis (MCID software). Optical density readings were converted in nCi g^−1 of tissue by calibration with the use of [^14C] microscales, which were co-exposed with the slides. […]
# 5-HT synthesis = 5-HT synthesis (5-HTP accumulation after NSD1015); type: in vivo, mouse
# Protocol: (§1) The level of 5-HT synthesis in frontal cortex and hippocampus was obtained by measuring the accumulation of 5-HTP following inhibition of aromatic amino acid decarboxylase. Mice (n=6 per group) were administered ebselen (0.5, 1 or 5 mg kg^−1 i.p.) or vehicle and 1 h later animals were injected with the aromatic amino acid decarboxylase inhibitor NSD1015 (100 mg kg^−1 i.p.). Mice were then culled by cervical dislocation 30 min following NSD1015 and brain tissue was removed and stored at −80° C. Separate experiments measured levels of 5-HT, 5-HIAA and tryptophan in cortex and hippocampus. Mice (n=6 per group) were administered ebselen (0.5, 1 or 5 mg kg^−1 i.p.) or vehicle and then culled by cervical dislocation 1 h post-drug. Brain tissue was dissected out and stored at −80° C. prior to neurochemical analysis.
# (§2) On the day of neurochemical analysis, tissue pieces (˜20 mg) of frozen frontal cortex and hippocampus were placed in Eppendorf tubes containing 500 μl perchloric acid (0.09 M) and homogenised using a polytron kinetic homogeniser (15000 rpm for 10 sec). Tissue homogenates were then centrifuged (1000 rpm for 10 min) and the supernatant was transferred in a new Eppendorf tube, protected from light, and kept on ice before analysis using HPLC with electrochemical detection (see below).
# (§3) Both mcrodialysates (20 μl) and brain tissue supernatants (50 μl) were analysed by an HPLC system, comprising a silica-based, reversed phase column (3.0 μm ODS2, 4.6 mm×100 mm, Waters Ltd) coupled to an electrochemical detector (glass carbon working electrode versus Ag/AgCl reference; LC-4C, Bioanalytical systems). For microdialysates, analytes were separated at room temperature by an isocratic mobile phase comprising 12.5% (v/v) methanol, 0.13 M NaHPO4.H2O, 0.025 mM octane sulphonic acid, 0.85 mM EDTA and 2 mM NaCl at pH 3.5, and with the working electrode set at +0.7 V.
# (§4) For measurement of 5-HT, 5-HIAA and tryptophan in brain tissue supernatants, analytes were separated at room temperature by an isocratic mobile phase comprising an isocratic mix of 15% (v/v) methanol, 2 mM 1-octanesulphonic acid, 0.12 M NaHPO4.H2O, 2 mM NaCl, and 0.1 mM EDTA at pH 3.7 with the working electrode set at +0.85V. For measurement of 5-HTP the mobile phase was adjusted to pH 3.4.
# [3] = system: 5-HT2A receptor binding sites; assay: Receptor autoradiography, [3H]-ketanserin binding sites in frontal cortex after treatment; type: in vivo, mouse
# Protocol: The effect of ebselen and lithium treatment on the abundance of cortical 5-HT2A receptor binding sites was measured using receptor autoradiography. Mice were randomly allocated to one of the following treatments (6 mice per group); i) acute ebselen (10 mg kg^−1 i.p.) or vehicle, ii) repeated ebselen (10 mg kg^−1 i.p., twice daily for 7 days; last injection morning of the 8th day) or vehicle, and iii) repeated lithium (7 days; 10 mmol kg^−1 i.p. on day 1, 3 mmol kg^−1 i.p. twice daily on days 2-7) or vehicle.
# Tissue sections (12 μm) were cryostat-cut at the level of the frontal cortex and stored in −80° C. On the day of the experiment, sections were incubated (at room temperature) in Tris-HCl buffer (0.17 M, pH 7.7) for 20 min, and then for 2 h with either 2 nM [^3H]-ketanserin (PerkinElmer) to determine total binding, or 2 nM [^3H]-ketanserin plus 10 μM methysergide to determine non-specific binding. Sections were then washed twice for 10 min with ice-cold 4° C. Tris-HCl buffer (0.17 M, pH 7.7), followed by double deionised water. Finally, slides were air-dried overnight before being exposed to autoradiographic films (BioMax MR, Kodak) for 12 weeks.
# Optical density measurements were obtained from the autoradiograms as described above. […] Specific binding was calculated by subtracting non-specific binding from total binding. […]
# [4] = reported in WO 2012/107735; cited from earlier work
# brain extracellular 5-HT = assay: Microdialysis, extracellular 5-HT in hippocampus; type: in vivo, mice
# Protocol: The microdialysis probe was connected to a perfusion pump (CMA/100, CMA Microdialysis Ltd.) and perfused (2 μl min^−1) continuously with artificial CSF (140 mM NaCl, 3 mM KCl, 1.2 mM Na2HPO4, 0.27 mM NaH2PO4, 1 mM MgCl2, 2.4 mM CaCl2 and 7.2 mM glucose). After 2 h perfusate samples were collected every 20 min and analysed immediately by HPLC with electrochemical detection (see below).
# Once 3 consecutive baseline samples were stable, mice received a single injection of ebselen (10 mg kg^−1 i.p.) or vehicle. Citalopram (5 mg kg^−1 i.p.) was administered 1 h later and dialysates were collected for a further 2 h. At the end of each experiment, brains were removed and probe placement was confirmed by histological examination.
# as §3
# [5] = Tissue levels of 5-HT, 5-HIAA and tryptophan; type: in vivo, mouse; conditions: 1 h post-drug
# Protocol: as §1, §2, §3, §4
# 5-HT2A receptor [6] = assay: Psilocin-evoked head-twitch response (HTR); type: in vivo, mice; conditions: ebselen pretreatment; psilocin 2 mg kg^-1 i.p.
# [7] = rats; cited from earlier work
# [8] = clinical trials for ischemic stroke (Yamaguchi et al 1998); cited from earlier work
# [9] = AR-A014418 10 or 20 mg kg^-1 i.p. pretreatment
# [10] = acute ebselen 1, 5 or 10 mg kg^-1 i.p., DOI 2 mg kg^-1 i.p.
# [11] = repeated ebselen 10 mg kg^-1 i.p. for 7 days
# [12] = L-690,330 150 or 240 mg kg^-1 i.p. pretreatment
smiles,measurement,setting,value
"COc1ccc(CNC(=O)Nc2ncc([N+](=O)[O-])s2)cc1 [AR-A014418, N-[(4-methoxyphenyl)methyl]-N′-(5-nitro-2-thiazolyl) urea, reference compound]",DOI-induced ESR,5-HT2A receptor [1]; [9],did not affect
same,DOI-induced HTR,5-HT2A receptor [1]; [9],did not affect
"COc1cc(CC(C)N)c(OC)cc1I (stereo not shown) [DOI, 1-(2,5-dimethoxy-4-iodophenyl)-propan-2-amine, reference compound]",Increase in IEG mRNA above vehicle-injected controls,"5-HT2A receptor [2]; DOI 2 mg kg^-1 i.p., selected brain regions",50-200%
"O=c1c2ccccc2[se]n1-c1ccccc1 [Ebselen, 2-phenyl-1,2-benzisoselenazol-3(2H)-one]",5-HTP Cortex,5-HT synthesis; ebselen 0.5 mg kg^-1 i.p.,109.7 ± 10.6 % of vehicle
same,5-HTP Hippocampus,5-HT synthesis; ebselen 0.5 mg kg^-1 i.p.,87.9 ± 14.6 % of vehicle
same,5-HTP Cortex,5-HT synthesis; ebselen 1 mg kg^-1 i.p.,100.4 ± 3.7 % of vehicle
same,5-HTP Hippocampus,5-HT synthesis; ebselen 1 mg kg^-1 i.p.,95.6 ± 6.5 % of vehicle
same,5-HTP Cortex,5-HT synthesis; ebselen 5 mg kg^-1 i.p.,202.5 ± 15.0 % of vehicle
same,5-HTP Hippocampus,5-HT synthesis; ebselen 5 mg kg^-1 i.p.,152.6 ± 9.0 % of vehicle
same,[^3H]-Ketanserin binding sites,"[3]; acute ebselen 10 mg kg^-1 i.p. (2h), vehicle 4.33 ± 0.66",3.36 ± 0.38 nCi g^-1 of tissue
same,[^3H]-Ketanserin binding sites,"[3]; repeated ebselen 10 mg kg^-1 i.p. (7 days), vehicle 6.60 ± 0.27",6.12 ± 0.63 nCi g^-1 of tissue
same,Transfer across the blood/brain barrier,[4],capable of transferring across the blood/brain barrier
same,Effect of citalopram on extracellular 5-HT after ebselen pretreatment,"brain extracellular 5-HT; ebselen 10 mg kg^-1 i.p. 1 h before citalopram 5 mg kg^-1 i.p., greatest effect 20-40 min post citalopram",enhanced
same,"Extracellular 5-HT, ebselen alone","brain extracellular 5-HT; ebselen 10 mg kg^-1 i.p., vs vehicle-injected controls",no effect
same,5-HIAA Cortex,[5]; ebselen 0.5 mg kg^-1 i.p.,83.3 ± 14.4 % of vehicle
same,5-HIAA Hippocampus,[5]; ebselen 0.5 mg kg^-1 i.p.,129.8 ± 12.9 % of vehicle
same,5-HT Cortex,[5]; ebselen 0.5 mg kg^-1 i.p.,158.1 ± 14.7 % of vehicle
same,5-HT Hippocampus,[5]; ebselen 0.5 mg kg^-1 i.p.,234.4 ± 23.9 % of vehicle
same,Tryptophan Cortex,[5]; ebselen 0.5 mg kg^-1 i.p.,105.0 ± 10.3 % of vehicle
same,Tryptophan Hippocampus,[5]; ebselen 0.5 mg kg^-1 i.p.,210.2 ± 35.1 % of vehicle
same,5-HIAA Cortex,[5]; ebselen 1 mg kg^-1 i.p.,75.9 ± 6.3 % of vehicle
same,5-HIAA Hippocampus,[5]; ebselen 1 mg kg^-1 i.p.,141.0 ± 9.5 % of vehicle
same,5-HT Cortex,[5]; ebselen 1 mg kg^-1 i.p.,148.6 ± 11.2 % of vehicle
same,5-HT Hippocampus,[5]; ebselen 1 mg kg^-1 i.p.,225.9 ± 14.3 % of vehicle
same,Tryptophan Cortex,[5]; ebselen 1 mg kg^-1 i.p.,122.7 ± 20.6 % of vehicle
same,Tryptophan Hippocampus,[5]; ebselen 1 mg kg^-1 i.p.,128.5 ± 13.6 % of vehicle
same,5-HIAA Cortex,[5]; ebselen 5 mg kg^-1 i.p.,88.7 ± 3.8 % of vehicle
same,5-HIAA Hippocampus,[5]; ebselen 5 mg kg^-1 i.p.,139.2 ± 17.0 % of vehicle
same,5-HT Cortex,[5]; ebselen 5 mg kg^-1 i.p.,130.9 ± 4.8 % of vehicle
same,5-HT Hippocampus,[5]; ebselen 5 mg kg^-1 i.p.,189.4 ± 21.4 % of vehicle
same,Tryptophan Cortex,[5]; ebselen 5 mg kg^-1 i.p.,131.9 ± 14.5 % of vehicle
same,Tryptophan Hippocampus,[5]; ebselen 5 mg kg^-1 i.p.,135.4 ± 17.2 % of vehicle
same,Psilocin-induced HTR,5-HT2A receptor [6],decreased
same,LD50,[7],greater than 1000 mg/kg
same,"IEG responses to DOI (Arc, c-fos, egr-2 mRNA)","5-HT2A receptor [2]; ebselen 10 mg kg^-1 i.p., cingulate and somatosensory cortex (Arc, c-fos), caudate nucleus and endopiriform cortex (egr-2)",attenuated
same,DOI-evoked ESR,5-HT2A receptor [1]; [10],dose-related decrease
same,DOI-evoked HTR,5-HT2A receptor [1]; [10],dose-related decrease
same,Inhibitory effect on DOI-evoked ESR,5-HT2A receptor [1]; [11],persisted
same,Inhibitory effect on DOI-evoked HTR,5-HT2A receptor [1]; [11],persisted
same,Toxicity in humans at pharmaceutically effective dosages,[8],sufficiently non-toxic
"CC(Oc1ccc(O)cc1)(P(=O)(O)O)P(=O)(O)O [L-690,330, [1-(4-hydroxyphenoxy)ethylidene]bisphosphonic acid, reference compound]",DOI-evoked ESR,5-HT2A receptor [1]; [12],decreased
same,DOI-evoked HTR,5-HT2A receptor [1]; [12],decreased
"CN(C)CCCC1(c2ccc(F)cc2)OCc2cc(C#N)ccc21 (stereo not shown) [citalopram, reference compound]",Peak increase of 5-HT in hippocampal microdialysates above pre-drug values,"brain extracellular 5-HT; citalopram 5 mg kg^-1 i.p., 60 min post injection, awake mice",approximately 450%
